Measurements taken from paper PMC11842588, “A first-in-class selective inhibitor of ERK1/2 and ERK5 overcomes drug resistance with a single-molecule strategy” (Signal Transduction and Targeted Therapy, 2025).

Assays:
Test in all cases: Kinase profiling
Assay type in all cases: biochemical
ASK1(h) = target: T1, ASK1(h) (Homo sapiens, UniProt Q99683)
T1 construct: purchased Eurofins Cerep SA (KinaseProfiler)
Method: (§1) 380 kinases inhibitory activities of SKLB-D18 were conducted by Eurofins Cerep SA. The result was illustrated by kinase tree (http://www.kinhub.org/kinmap/).

Arg(h) = target: T2, Arg(h) (Homo sapiens, UniProt P42684)
T2 construct: purchased Eurofins Cerep SA (KinaseProfiler)
Method: as §1

Bmx(h) = target: T3, Bmx(h) (Homo sapiens, UniProt P51813)
T3 construct: purchased Eurofins Cerep SA (KinaseProfiler)
T3 sequence (P51813 whole entry): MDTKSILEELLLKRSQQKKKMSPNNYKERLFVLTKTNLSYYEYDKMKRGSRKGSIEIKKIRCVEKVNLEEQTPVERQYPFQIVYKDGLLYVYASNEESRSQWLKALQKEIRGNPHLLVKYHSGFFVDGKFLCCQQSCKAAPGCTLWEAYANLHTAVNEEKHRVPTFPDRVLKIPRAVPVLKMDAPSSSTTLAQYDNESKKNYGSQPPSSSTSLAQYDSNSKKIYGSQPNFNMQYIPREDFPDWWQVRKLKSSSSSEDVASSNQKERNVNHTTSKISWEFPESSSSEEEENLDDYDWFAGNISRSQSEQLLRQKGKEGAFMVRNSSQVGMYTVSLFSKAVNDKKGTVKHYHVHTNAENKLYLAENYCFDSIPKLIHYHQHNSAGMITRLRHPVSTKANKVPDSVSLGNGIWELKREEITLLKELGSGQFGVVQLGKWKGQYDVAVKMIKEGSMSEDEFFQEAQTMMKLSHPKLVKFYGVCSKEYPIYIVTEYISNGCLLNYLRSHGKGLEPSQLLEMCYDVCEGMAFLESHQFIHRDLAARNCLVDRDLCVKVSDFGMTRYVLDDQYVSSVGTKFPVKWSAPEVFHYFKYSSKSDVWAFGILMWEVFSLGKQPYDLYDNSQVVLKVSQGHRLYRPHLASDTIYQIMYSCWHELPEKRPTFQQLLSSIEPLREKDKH
Method: as §1

CK2α2(h) = target: T4, CK2α2(h) (Homo sapiens, UniProt P19784)
T4 construct: purchased Eurofins Cerep SA (KinaseProfiler)
Method: as §1

CaMKIIγ(h) = target: T5, CaMKIIγ(h) (Homo sapiens, UniProt Q13555)
T5 construct: purchased Eurofins Cerep SA (KinaseProfiler)
Method: as §1

CaMKIIδ(h) = target: T6, CaMKIIδ(h) (Homo sapiens, UniProt Q13557)
T6 construct: purchased Eurofins Cerep SA (KinaseProfiler)
Method: as §1

DAPK1(h) = target: T7, DAPK1(h) (Homo sapiens, UniProt P53355)
T7 construct: purchased Eurofins Cerep SA (KinaseProfiler)
Method: as §1

DCAMKL3(h) = target: T8, DCAMKL3(h) (Homo sapiens, UniProt Q9C098)
T8 construct: purchased Eurofins Cerep SA (KinaseProfiler)
Method: as §1

DMPK(h) = target: T9, DMPK(h) (Homo sapiens, UniProt Q09013)
T9 construct: purchased Eurofins Cerep SA (KinaseProfiler)
T9 sequence (Q09013 whole entry): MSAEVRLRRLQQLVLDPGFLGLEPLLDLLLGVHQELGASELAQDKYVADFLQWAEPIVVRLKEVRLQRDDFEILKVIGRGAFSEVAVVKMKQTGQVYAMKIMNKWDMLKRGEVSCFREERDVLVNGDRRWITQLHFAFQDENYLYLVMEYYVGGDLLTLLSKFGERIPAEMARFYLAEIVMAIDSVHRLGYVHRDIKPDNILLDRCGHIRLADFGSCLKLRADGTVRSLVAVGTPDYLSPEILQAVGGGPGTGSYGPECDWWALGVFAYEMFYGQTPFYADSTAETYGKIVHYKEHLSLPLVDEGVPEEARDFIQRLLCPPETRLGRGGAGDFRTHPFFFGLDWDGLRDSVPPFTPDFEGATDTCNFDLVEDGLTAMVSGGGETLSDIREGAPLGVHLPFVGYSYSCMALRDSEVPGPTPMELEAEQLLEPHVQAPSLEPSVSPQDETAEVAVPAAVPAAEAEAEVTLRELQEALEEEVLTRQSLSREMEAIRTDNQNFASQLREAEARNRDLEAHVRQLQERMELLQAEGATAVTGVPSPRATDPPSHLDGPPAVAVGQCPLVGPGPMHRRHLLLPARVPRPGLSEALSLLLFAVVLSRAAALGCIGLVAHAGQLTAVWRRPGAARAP
Method: as §1

DYRK1A(h) = target: T10, DYRK1A(h) (Homo sapiens, UniProt Q13627)
T10 construct: purchased Eurofins Cerep SA (KinaseProfiler)
Method: as §1

EphA3(h) = target: T11, EphA3(h) (Homo sapiens, UniProt P29320)
T11 construct: purchased Eurofins Cerep SA (KinaseProfiler)
Method: as §1

EphA4(h) = target: T12, EphA4(h) (Homo sapiens, UniProt P54764)
T12 construct: purchased Eurofins Cerep SA (KinaseProfiler)
T12 sequence (P54764 20-986): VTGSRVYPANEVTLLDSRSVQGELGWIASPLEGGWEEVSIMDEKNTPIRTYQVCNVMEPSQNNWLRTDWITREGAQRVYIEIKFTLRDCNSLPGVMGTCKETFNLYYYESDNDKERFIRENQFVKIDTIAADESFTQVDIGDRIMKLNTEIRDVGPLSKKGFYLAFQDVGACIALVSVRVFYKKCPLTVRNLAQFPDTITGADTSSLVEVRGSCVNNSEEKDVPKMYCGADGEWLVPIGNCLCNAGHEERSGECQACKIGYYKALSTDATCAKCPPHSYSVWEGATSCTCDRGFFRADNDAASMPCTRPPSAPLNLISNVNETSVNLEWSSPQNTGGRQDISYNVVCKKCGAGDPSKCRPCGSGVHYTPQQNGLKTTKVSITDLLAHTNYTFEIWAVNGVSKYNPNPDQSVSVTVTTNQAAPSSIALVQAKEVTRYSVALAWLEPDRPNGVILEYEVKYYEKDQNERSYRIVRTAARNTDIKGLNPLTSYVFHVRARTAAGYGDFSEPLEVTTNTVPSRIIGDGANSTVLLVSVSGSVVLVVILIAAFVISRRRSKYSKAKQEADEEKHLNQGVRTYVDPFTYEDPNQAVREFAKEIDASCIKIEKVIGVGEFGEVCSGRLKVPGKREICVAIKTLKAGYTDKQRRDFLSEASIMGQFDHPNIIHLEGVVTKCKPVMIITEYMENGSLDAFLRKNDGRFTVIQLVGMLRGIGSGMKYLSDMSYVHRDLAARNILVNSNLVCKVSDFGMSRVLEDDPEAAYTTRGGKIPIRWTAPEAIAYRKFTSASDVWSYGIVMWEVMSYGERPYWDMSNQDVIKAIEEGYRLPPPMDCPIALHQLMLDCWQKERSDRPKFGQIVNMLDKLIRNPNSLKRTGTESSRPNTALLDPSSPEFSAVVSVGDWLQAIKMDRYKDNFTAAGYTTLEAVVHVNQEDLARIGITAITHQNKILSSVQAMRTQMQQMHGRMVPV
Method: as §1

EphB3(h) = target: T13, EphB3(h) (Homo sapiens, UniProt P54753)
T13 construct: purchased Eurofins Cerep SA (KinaseProfiler)
Method: as §1

FGFR2(h) = target: T14, FGFR2(h) (Homo sapiens, UniProt P21802)
T14 construct: purchased Eurofins Cerep SA (KinaseProfiler)
Method: as §1

Fes(h) = target: T15, Fes(h) (Homo sapiens, UniProt P07332)
T15 construct: purchased Eurofins Cerep SA (KinaseProfiler)
Method: as §1

Flt4(h) = target: T16, Flt4(h) (Homo sapiens, UniProt P35916)
T16 construct: purchased Eurofins Cerep SA (KinaseProfiler)
Method: as §1

GRK5(h) = target: T17, GRK5(h) (Homo sapiens, UniProt P34947)
T17 construct: purchased Eurofins Cerep SA (KinaseProfiler)
Method: as §1

Hck(h) = target: T18, Hck(h) (Homo sapiens, UniProt P08631)
T18 construct: purchased Eurofins Cerep SA (KinaseProfiler)
Method: as §1

IR(h) = target: T19, IR(h) (Homo sapiens, UniProt P06213)
T19 construct: purchased Eurofins Cerep SA (KinaseProfiler)
Method: as §1

JNK1α1(h) = target: T20, JNK1α1(h) (Homo sapiens, UniProt P45983)
T20 construct: purchased Eurofins Cerep SA (KinaseProfiler)
Method: as §1

MEK1(h) = target: T21, MEK1(h) (Homo sapiens, UniProt Q02750)
T21 construct: purchased Eurofins Cerep SA (KinaseProfiler)
Method: as §1

MRCKβ(h) = target: T22, MRCKβ(h) (Homo sapiens, UniProt Q9Y5S2)
T22 construct: purchased Eurofins Cerep SA (KinaseProfiler)
Method: as §1

Mnk2(h) = target: T23, Mnk2(h) (Homo sapiens, UniProt Q9HBH9)
T23 construct: purchased Eurofins Cerep SA (KinaseProfiler)
Method: as §1

NEK9(h) = target: T24, NEK9(h) (Homo sapiens, UniProt Q8TD19)
T24 construct: purchased Eurofins Cerep SA (KinaseProfiler)
T24 sequence (Q8TD19 whole entry): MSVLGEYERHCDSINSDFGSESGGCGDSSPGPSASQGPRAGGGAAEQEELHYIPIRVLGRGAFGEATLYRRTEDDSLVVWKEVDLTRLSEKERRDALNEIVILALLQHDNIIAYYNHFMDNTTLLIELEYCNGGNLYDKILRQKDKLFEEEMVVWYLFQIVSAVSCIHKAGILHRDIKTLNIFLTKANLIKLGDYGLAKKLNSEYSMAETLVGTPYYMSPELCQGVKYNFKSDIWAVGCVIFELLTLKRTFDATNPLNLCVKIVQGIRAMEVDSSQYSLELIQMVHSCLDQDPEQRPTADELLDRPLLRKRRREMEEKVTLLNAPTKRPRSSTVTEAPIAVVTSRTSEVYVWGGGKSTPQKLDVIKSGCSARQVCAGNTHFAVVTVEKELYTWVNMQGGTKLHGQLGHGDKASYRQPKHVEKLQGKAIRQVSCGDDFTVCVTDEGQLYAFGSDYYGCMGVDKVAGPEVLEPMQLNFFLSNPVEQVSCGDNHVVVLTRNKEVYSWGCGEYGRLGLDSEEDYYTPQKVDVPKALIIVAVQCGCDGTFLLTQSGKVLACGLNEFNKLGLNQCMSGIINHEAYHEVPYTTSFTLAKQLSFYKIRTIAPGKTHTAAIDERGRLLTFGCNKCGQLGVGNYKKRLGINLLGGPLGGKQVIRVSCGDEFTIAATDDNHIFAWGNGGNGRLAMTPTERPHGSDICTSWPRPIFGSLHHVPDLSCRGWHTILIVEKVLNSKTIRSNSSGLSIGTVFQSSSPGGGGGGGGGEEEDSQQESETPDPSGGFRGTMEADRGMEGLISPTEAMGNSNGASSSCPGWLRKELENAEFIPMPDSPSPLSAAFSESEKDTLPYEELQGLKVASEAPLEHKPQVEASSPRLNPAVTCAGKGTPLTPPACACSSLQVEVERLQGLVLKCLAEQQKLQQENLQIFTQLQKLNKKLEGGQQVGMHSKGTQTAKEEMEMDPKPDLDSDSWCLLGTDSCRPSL
Method: as §1

PAR-1Bα(h) = target: T25, PAR-1Bα(h) (Homo sapiens, UniProt Q7KZI7)
T25 construct: purchased Eurofins Cerep SA (KinaseProfiler)
Method: as §1

PDHK4(h) = target: T26, PDHK4(h) (Homo sapiens, UniProt Q16654)
T26 construct: purchased Eurofins Cerep SA (KinaseProfiler)
Method: as §1

[1] = target: T27, PI3 Kinase (p110d/p85a)(h) (Homo sapiens, UniProt O00329)
T27 construct: purchased Eurofins Cerep SA (KinaseProfiler)
Method: as §1

PI3 Kinase (p120g)(h) = target: T28, PI3 Kinase (p120g)(h) (Homo sapiens, UniProt P48736)
T28 construct: purchased Eurofins Cerep SA (KinaseProfiler)
Method: as §1

PKD2(h) = target: T29, PKD2(h) (Homo sapiens, UniProt Q9BZL6)
T29 construct: purchased Eurofins Cerep SA (KinaseProfiler)
Method: as §1

Pim-1(h) = target: T30, Pim-1(h) (Homo sapiens, UniProt P11309)
T30 construct: purchased Eurofins Cerep SA (KinaseProfiler)
Method: as §1

SAPK3(h) = target: T31, SAPK3(h) (Homo sapiens, UniProt P53778)
T31 construct: purchased Eurofins Cerep SA (KinaseProfiler)
Method: as §1

SRMS(h) = target: T32, SRMS(h) (Homo sapiens, UniProt Q9H3Y6)
T32 construct: purchased Eurofins Cerep SA (KinaseProfiler)
Method: as §1

STK32B(h) = target: T33, STK32B(h) (Homo sapiens, UniProt Q9NY57)
T33 construct: purchased Eurofins Cerep SA (KinaseProfiler)
Method: as §1

STK32C(h) = target: T34, STK32C(h) (Homo sapiens, UniProt Q86UX6)
T34 construct: purchased Eurofins Cerep SA (KinaseProfiler)
Method: as §1

TAF1L(h) = target: T35, TAF1L(h) (Homo sapiens, UniProt Q8IZX4)
T35 construct: purchased Eurofins Cerep SA (KinaseProfiler)
Method: as §1

TBK1(h) = target: T36, TBK1(h) (Homo sapiens, UniProt Q9UHD2)
T36 construct: purchased Eurofins Cerep SA (KinaseProfiler)
Method: as §1

TSSK2(h) = target: T37, TSSK2(h) (Homo sapiens, UniProt Q96PF2)
T37 construct: purchased Eurofins Cerep SA (KinaseProfiler)
Method: as §1

TSSK3(h) = target: T38, TSSK3(h) (Homo sapiens, UniProt Q96PN8)
T38 construct: purchased Eurofins Cerep SA (KinaseProfiler)
T38 sequence (Q96PN8 whole entry): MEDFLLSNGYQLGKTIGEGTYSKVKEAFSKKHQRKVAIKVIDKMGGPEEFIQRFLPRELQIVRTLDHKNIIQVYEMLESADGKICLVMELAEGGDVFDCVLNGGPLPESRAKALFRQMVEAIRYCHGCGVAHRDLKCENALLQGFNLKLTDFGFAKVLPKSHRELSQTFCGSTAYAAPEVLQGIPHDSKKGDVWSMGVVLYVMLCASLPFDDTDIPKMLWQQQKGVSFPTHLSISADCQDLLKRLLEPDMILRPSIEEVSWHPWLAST
Method: as §1

TTK(h) = target: T39, TTK(h) (Homo sapiens, UniProt P33981)
T39 construct: purchased Eurofins Cerep SA (KinaseProfiler)
Method: as §1

Tie2 (h) = target: T40, Tie2 (h) (Homo sapiens, UniProt Q02763)
T40 construct: purchased Eurofins Cerep SA (KinaseProfiler)
Method: as §1

cSRC(h) = target: T41, cSRC(h) (Homo sapiens, UniProt P12931)
T41 construct: purchased Eurofins Cerep SA (KinaseProfiler)
Method: as §1

T1 sequence (Q99683 whole entry): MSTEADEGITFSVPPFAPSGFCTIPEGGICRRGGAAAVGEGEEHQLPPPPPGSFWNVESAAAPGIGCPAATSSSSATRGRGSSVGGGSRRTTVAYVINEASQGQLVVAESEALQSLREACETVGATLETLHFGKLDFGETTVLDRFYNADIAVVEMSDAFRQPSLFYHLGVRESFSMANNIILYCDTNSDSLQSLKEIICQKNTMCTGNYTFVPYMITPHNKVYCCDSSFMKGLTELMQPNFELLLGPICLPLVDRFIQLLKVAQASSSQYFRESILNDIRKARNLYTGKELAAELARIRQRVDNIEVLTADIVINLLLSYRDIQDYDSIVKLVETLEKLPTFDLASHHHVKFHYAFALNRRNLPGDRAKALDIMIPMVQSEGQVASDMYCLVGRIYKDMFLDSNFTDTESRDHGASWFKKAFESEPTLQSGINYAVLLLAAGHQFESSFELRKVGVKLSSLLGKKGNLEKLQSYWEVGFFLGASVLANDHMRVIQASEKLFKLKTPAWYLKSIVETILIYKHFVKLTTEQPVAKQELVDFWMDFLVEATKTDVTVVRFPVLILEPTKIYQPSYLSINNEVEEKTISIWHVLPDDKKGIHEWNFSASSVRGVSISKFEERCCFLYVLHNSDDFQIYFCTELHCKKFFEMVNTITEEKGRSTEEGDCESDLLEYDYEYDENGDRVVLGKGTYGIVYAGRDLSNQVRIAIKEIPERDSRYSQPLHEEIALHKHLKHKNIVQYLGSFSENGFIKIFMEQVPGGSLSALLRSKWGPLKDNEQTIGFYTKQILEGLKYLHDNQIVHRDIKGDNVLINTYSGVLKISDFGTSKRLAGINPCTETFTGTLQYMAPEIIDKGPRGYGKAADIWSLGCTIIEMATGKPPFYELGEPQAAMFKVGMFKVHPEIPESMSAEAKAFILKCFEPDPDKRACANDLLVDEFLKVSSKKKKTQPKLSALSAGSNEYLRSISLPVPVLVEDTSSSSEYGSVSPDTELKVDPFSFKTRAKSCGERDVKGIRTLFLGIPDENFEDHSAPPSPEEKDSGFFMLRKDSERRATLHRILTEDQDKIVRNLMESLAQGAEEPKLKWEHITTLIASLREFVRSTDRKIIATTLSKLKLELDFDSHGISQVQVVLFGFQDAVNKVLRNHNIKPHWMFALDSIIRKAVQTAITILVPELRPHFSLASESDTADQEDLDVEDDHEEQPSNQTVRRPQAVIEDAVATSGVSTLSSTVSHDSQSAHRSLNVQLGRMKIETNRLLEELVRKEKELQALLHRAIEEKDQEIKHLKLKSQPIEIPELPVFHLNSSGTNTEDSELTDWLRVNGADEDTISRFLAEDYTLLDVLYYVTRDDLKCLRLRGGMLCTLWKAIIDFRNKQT

CN(C)Cc1cccc(Nc2ncc(Cl)c(-c3csc(C(=O)NN4CCOCC4)c3)n2)c1 [SKLB-D18, 4-(5-chloro-2-((3-((dimethylamino)methyl)phenyl)amino)pyrimidin-4-yl)-N-morpholinothiophene-2-carboxamide]
inhibition at 1 µM (ASK1(h)): -5% | inhibition at 1 µM (Arg(h)): 43% | inhibition at 1 µM (Bmx(h)): 46% | inhibition at 1 µM (CK2α2(h)): 65% | inhibition at 1 µM (CaMKIIγ(h)): 50% | inhibition at 1 µM (CaMKIIδ(h)): 47% | inhibition at 1 µM (DAPK1(h)): 67% | inhibition at 1 µM (DCAMKL3(h)): 66% | inhibition at 1 µM (DMPK(h)): 8% | inhibition at 1 µM (DYRK1A(h)): 13% | inhibition at 1 µM (EphA3(h)): 12% | inhibition at 1 µM (EphA4(h)): 6% | inhibition at 1 µM (EphB3(h)): 3% | inhibition at 1 µM (FGFR2(h)): 55% | inhibition at 1 µM (Fes(h)): 53% | inhibition at 1 µM (Flt4(h)): 63% | inhibition at 1 µM (GRK5(h)): -1% | inhibition at 1 µM (Hck(h)): 20% | inhibition at 1 µM (IR(h)): 0% | inhibition at 1 µM (JNK1α1(h)): 40% | inhibition at 1 µM (MEK1(h)): 15% | inhibition at 1 µM (MRCKβ(h)): 15% | inhibition at 1 µM (Mnk2(h)): 59% | inhibition at 1 µM (NEK9(h)): 56% | inhibition at 1 µM (PAR-1Bα(h)): 65% | inhibition at 1 µM (PDHK4(h)): 5% | inhibition at 1 µM [1]: 0% | inhibition at 1 µM (PI3 Kinase (p120g)(h)): 4% | inhibition at 1 µM (PKD2(h)): 66% | inhibition at 1 µM (Pim-1(h)): 37% | inhibition at 1 µM (SAPK3(h)): 25% | inhibition at 1 µM (SRMS(h)): 11% | inhibition at 1 µM (STK32B(h)): -3% | inhibition at 1 µM (STK32C(h)): 1% | inhibition at 1 µM (TAF1L(h)): 53% | inhibition at 1 µM (TBK1(h)): 64% | inhibition at 1 µM (TSSK2(h)): -2% | inhibition at 1 µM (TSSK3(h)): 53% | inhibition at 1 µM (TTK(h)): 34% | inhibition at 1 µM (Tie2 (h)): 44% | inhibition at 1 µM (cSRC(h)): 55%
